Test results as given in US12297194B2, “N2-phenylpyrimidine-2,4-diamine compounds, and preparation methods and methods of use thereof” (BRIDGE BIOTHERAPEUTICS, INC., priority 2021, dated 2025).

Legend:
Format in all cases: cell-based, murine
[1] = biological target: Ba/F3 EGFR Del19/C797S mutants (Homo sapiens, UniProt P00533, C797S, cells depend on it, form not given); experiment: CellTiter-Glo cell viability, Ba/F3 EGFR Del19/C797S cells; settings: 72 hours, read-out: Ba/F3 EGFR mutant cell (IC50, nM) D/C
Summary of the method: (§1)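 Luminescent ATP read-out (CellTiter-Glo) after 72 h compound exposure, 0–2000 nM dilution series. Cells plated 2500/well, dosed 24 h post-seeding. IC50 from luminescence curves.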

[2] = biological target: Ba/F3 EGFR Del19/T790M/C797S mutants (Homo sapiens, UniProt P00533, T790M/C797S, cells depend on it, form not given); experiment: CellTiter-Glo cell viability, Ba/F3 EGFR Del19/T790M/C797S cells; settings: 72 hours, read-out: Ba/F3 EGFR mutant cell (IC50, nM) D/T/C
Summary of the method: as §1

[3] = biological target: Ba/F3 EGFR Del19/T790M mutants (Homo sapiens, UniProt P00533, T790M, cells depend on it, form not given); experiment: CellTiter-Glo cell viability, Ba/F3 EGFR Del19/T790M cells; settings: 72 hours, read-out: Ba/F3 EGFR mutant cell (IC50, nM) D/T
Summary of the method: as §1

[4] = biological target: Ba/F3 EGFR L858R/T790M/C797S mutants (Homo sapiens, UniProt P00533, T790M/C797S/L858R, cells depend on it); experiment: CellTiter-Glo cell viability, Ba/F3 EGFR L858R/T790M/C797S cells; settings: 72 hours, read-out: Ba/F3 EGFR mutant cell (IC50, nM) L/T/C
Summary of the method: as §1

[5] = biological target: Ba/F3 EGFR L858R/C797S mutants (Homo sapiens, UniProt P00533, C797S/L858R, cells depend on it); experiment: CellTiter-Glo cell viability, Ba/F3 EGFR L858R/C797S cells; settings: 72 hours, read-out: Ba/F3 EGFR mutant cell (IC50, nM) L/C
Summary of the method: as §1

Ba/F3 EGFR Wild-type = Ba/F3 EGFR Wild-type (Homo sapiens, UniProt P00533); experiment: CellTiter-Glo cell viability, Ba/F3 EGFR wild-type cells; settings: 72 hours, read-out: Ba/F3 EGFR mutant cell (IC50, nM) WT
Summary of the method: as §1

Sequence of Ba/F3 EGFR Del19/T790M mutants (P00533 with tags, fused parts or gaps DEL746-750/T790M, form open): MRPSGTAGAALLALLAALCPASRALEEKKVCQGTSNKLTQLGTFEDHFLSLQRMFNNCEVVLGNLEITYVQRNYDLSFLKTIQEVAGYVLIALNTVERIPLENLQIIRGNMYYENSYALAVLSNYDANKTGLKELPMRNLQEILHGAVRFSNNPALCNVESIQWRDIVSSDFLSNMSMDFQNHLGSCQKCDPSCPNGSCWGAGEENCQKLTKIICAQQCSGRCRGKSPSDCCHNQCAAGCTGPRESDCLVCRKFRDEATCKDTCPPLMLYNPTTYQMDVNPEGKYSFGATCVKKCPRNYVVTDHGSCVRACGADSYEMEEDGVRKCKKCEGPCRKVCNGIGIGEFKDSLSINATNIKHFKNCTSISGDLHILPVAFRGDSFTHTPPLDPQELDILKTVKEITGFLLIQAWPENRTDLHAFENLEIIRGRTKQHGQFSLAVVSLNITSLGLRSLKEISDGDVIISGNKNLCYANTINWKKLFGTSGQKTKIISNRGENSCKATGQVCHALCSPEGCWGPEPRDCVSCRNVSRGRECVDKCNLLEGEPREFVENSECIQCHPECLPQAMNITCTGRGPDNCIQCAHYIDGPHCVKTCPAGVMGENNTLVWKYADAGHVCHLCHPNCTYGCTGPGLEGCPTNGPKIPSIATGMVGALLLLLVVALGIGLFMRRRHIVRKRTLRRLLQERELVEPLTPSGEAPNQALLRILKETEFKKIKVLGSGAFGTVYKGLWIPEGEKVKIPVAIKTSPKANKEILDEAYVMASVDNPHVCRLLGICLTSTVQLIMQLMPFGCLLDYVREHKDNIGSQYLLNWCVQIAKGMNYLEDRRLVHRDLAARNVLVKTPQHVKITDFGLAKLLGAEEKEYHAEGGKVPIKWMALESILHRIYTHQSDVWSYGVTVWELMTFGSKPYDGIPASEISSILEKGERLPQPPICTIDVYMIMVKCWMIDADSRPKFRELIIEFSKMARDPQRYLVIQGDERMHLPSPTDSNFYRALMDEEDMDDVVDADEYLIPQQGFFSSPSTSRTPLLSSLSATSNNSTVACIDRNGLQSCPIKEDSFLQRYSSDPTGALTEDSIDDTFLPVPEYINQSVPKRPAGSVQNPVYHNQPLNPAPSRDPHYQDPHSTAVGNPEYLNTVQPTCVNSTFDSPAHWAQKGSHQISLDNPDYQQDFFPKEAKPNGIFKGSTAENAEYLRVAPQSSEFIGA
Sequence of Ba/F3 EGFR Wild-type (P00533 whole entry, change not shown): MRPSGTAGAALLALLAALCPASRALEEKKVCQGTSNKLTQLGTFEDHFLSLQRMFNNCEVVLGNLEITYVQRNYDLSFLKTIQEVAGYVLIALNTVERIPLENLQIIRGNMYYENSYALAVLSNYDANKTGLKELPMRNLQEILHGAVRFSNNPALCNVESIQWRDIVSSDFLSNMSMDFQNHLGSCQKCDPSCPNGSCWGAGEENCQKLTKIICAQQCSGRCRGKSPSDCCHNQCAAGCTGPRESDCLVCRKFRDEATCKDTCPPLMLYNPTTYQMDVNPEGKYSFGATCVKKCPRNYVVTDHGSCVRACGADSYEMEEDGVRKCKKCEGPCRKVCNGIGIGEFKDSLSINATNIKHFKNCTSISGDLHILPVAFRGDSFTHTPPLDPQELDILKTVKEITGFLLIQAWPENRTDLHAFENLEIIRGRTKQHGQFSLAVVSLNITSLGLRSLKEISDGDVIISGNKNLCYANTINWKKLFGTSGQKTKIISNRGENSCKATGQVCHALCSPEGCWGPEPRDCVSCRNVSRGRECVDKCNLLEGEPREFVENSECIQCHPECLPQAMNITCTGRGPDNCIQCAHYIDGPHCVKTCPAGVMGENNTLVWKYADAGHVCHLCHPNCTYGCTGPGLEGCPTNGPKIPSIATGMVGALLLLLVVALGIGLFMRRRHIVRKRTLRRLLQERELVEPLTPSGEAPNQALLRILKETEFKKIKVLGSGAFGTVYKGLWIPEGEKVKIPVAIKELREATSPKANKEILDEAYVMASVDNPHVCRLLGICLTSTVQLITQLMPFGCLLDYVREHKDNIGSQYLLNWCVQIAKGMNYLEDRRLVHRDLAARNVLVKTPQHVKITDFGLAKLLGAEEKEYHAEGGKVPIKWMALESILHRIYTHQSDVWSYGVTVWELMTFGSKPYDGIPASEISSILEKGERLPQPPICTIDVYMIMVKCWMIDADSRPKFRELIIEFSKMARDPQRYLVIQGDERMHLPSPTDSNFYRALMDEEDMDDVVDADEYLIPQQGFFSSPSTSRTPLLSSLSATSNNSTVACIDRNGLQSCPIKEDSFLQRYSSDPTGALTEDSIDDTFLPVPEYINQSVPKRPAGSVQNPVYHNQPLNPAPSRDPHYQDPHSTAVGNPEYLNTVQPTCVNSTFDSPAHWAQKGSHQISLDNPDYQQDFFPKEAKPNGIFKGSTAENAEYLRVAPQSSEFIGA
Sequence of Ba/F3 EGFR Del19/T790M/C797S mutants (P00533 with tags, fused parts or gaps DEL746-750/T790M/C797S, form open): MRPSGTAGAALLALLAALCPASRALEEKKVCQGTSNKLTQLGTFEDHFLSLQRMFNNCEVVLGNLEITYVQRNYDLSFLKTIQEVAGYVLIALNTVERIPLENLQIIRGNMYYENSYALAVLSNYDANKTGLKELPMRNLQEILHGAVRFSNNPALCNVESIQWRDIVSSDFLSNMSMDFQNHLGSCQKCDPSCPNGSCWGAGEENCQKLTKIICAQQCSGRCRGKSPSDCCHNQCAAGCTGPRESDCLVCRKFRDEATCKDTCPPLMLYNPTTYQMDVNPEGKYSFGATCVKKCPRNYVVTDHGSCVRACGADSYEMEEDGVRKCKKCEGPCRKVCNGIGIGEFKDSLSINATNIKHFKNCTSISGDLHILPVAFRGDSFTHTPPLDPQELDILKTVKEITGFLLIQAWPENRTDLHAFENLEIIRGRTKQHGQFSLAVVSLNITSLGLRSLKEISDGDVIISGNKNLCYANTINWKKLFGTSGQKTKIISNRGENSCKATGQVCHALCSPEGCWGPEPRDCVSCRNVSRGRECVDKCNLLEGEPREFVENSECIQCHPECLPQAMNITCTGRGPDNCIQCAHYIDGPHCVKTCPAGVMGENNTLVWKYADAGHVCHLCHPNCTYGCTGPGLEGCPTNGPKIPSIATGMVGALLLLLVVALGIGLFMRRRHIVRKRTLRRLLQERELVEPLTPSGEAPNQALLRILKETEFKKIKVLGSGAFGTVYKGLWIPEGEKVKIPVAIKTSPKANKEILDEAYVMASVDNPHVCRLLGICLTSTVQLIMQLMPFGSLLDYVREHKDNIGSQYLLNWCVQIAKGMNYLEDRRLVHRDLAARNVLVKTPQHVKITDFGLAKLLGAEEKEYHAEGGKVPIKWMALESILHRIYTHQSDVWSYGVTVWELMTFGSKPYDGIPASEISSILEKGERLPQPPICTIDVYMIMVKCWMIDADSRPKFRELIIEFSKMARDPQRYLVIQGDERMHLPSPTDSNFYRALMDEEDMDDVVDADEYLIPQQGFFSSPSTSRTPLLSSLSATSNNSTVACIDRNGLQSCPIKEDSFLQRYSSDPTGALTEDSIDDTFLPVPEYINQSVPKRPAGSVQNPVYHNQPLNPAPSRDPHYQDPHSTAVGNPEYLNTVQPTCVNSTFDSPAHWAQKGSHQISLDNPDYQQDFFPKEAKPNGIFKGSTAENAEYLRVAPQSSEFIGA
Sequence of Ba/F3 EGFR L858R/C797S mutants (P00533 whole entry C797S/L858R): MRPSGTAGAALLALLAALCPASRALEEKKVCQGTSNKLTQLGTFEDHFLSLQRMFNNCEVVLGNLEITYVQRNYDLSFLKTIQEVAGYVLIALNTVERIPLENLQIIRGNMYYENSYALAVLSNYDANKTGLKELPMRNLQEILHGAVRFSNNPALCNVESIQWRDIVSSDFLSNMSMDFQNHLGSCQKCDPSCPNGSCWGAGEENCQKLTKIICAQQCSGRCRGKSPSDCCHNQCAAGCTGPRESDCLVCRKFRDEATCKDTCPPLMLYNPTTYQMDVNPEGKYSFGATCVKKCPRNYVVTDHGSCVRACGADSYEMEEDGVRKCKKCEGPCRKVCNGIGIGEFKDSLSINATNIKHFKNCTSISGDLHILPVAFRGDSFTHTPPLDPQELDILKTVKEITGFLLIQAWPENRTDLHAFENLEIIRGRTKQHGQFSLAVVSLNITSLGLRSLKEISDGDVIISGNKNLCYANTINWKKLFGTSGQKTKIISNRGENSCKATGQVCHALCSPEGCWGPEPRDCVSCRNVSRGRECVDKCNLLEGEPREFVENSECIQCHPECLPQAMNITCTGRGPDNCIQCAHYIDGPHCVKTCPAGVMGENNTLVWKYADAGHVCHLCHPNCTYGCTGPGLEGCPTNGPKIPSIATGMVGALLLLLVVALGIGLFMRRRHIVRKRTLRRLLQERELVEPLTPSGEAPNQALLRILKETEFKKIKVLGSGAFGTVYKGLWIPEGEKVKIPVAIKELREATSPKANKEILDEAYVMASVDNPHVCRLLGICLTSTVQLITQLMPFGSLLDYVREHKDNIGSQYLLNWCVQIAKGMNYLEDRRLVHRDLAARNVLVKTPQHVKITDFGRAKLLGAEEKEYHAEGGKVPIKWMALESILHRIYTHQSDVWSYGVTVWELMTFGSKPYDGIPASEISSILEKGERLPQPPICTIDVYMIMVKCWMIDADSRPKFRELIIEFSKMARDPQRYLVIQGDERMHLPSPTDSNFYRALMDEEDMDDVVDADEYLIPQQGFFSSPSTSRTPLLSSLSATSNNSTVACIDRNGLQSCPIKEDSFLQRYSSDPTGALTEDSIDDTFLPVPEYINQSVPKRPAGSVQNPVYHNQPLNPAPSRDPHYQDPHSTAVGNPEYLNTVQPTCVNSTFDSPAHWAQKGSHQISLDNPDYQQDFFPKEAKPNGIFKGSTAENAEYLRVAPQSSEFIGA

Row | Structure (SMILES) | GI50 [1] [nM] | GI50 [2] [nM] | GI50 [3] [nM] | GI50 [4] [nM] | GI50 [5] [nM] | GI50 (Ba/F3 EGFR Wild-type) [nM]
1 | COc1cc(N2CCC(N3CCCC3)CC2)c(C)cc1Nc1ncc(Br)c(Nc2cccc(OC)c2NS(C)(=O)=O)n1 [Example C25, N-(2-((5-bromo-2-((2-methoxy-5-methyl-4-(4-(pyrrolidin-1-yl)piperidin-1-yl)phenyl)amino)pyrimidin-4-yl)amino)-6-methoxyphenyl)methanesulfonamide] | 18 | 6 | 6 | 44 | 55 | 707
2 | COc1cc(N2CCNCC2)ccc1Nc1ncc(Cl)c(Nc2cccc(OC)c2NS(C)(=O)=O)n1 [Example C6, N-(2-((5-chloro-2-((2-methoxy-4-(piperazin-1-yl)phenyl)amino)pyrimidin-4-yl)amino)-6-methoxyphenyl)methanesulfonamide] | 106 | 222 | 268 | 596 | 305 | 626
3 | COc1cc(N2CCC(N(C)C)CC2)c(C)cc1Nc1ncc(Br)c(Nc2cccc(OC)c2N(C)S(C)(=O)=O)n1 [Example C5, N-(2-((5-bromo-2-((4-(4-(dimethylamino)piperidin-1-yl)-2-methoxy-5-methylphenyl)amino)pyrimidin-4-yl)amino)-6-methoxyphenyl)-N-methylmethanesulfonamide] | 19 | 34 | 17 | 94 | 91 | 545
4 | CCc1cc(Nc2ncc(Cl)c(Nc3ccc4nccnc4c3NS(C)(=O)=O)n2)c(OC)cc1N1CC2CCC1CN2C(C)C (stereo not drawn) [Example B25, N-(6-((5-chloro-2-((5-ethyl-4-(5-isopropyl-2,5-diazabicyclo[2.2.2]octan-2-yl)-2-methoxyphenyl)amino)pyrimidin-4-yl)amino) 105 quinoxaline-5-yl)methanesulfonamide] | 16 | 22 | 26 | 83 | 93 | 829
5 | COc1cc(N2CCC(N3CCOCC3)CC2)c(C)cc1Nc1ncc(Cl)c(Nc2ccc3nccnc3c2NS(C)(=O)=O)n1 [Example A31, N-(6-((5-chloro-2-((2-methoxy-5-methyl-4-(4-morpholinopiperidin-1-yl)phenyl)amino)pyrimidin-4-yl)amino)quinoxalin-5-yl)methanesulfonamide] | 50 | 131 | 39 | 43 | 79 | 223
6 | COc1cc(N2CCC(N3CCN(C)C4(CC4)C3)CC2)ccc1Nc1ncc(Cl)c(Nc2ccc3nccnc3c2NS(C)(=O)=O)n1 [Example A15, N-(6-((5-chloro-2-((2-methoxy-4-(4-(4-methyl-4,7-diazaspiro[2.5]octan-7-yl)piperidin-1-yl)phenyl)amino)pyrimidin-4-yl)amino)quinoxalin-5-yl)methanesulfonamide] | 295 | 211 | 156 | 473 | 423 | 811
7 | CCS(=O)(=O)Nc1c(Nc2nc(Nc3cc(C)c(N4CCC(N5CCN(C)CC5)CC4)cc3OC)ncc2Br)ccc2nccnc12 [Example A24, N-(6-((5-bromo-2-((2-methoxy-5-methyl-4-(4-(4-methylpiperazin-1-yl)piperidin-1-yl)phenyl)amino)pyrimidin-4-yl)amino)quinoxalin-5-yl)ethanesulfonamide] | 49 | 74 | 10 | 13 | 114 | 397
8 | CCCc1cc(Nc2ncc(Cl)c(Nc3ccc(OC)cc3NS(C)(=O)=O)n2)c(OC)cc1N1CCC(N(C)C)CC1 [Example C12, N-(2-((5-chloro-2-((4-(4-(dimethylamino)piperidin-1-yl)-2-methoxy-5-propylphenyl)amino)pyrimidin-4-yl)amino)-5-methoxyphenyl)methanesulfonamide] | 6 | 9 | 8 | 29 | 28 | 731
9 | COc1cc(N2CCC(N(C)C)CC2)c(C)cc1Nc1ncc(Br)c(Nc2ccc3nccnc3c2N(C)S(C)(=O)=O)n1 [Example B7, N-(6-((5-bromo-2-((4-(4-(dimethylamino)piperidin-1-yl)-2-methoxy-5-methylphenyl)amino)pyrimidin-4-yl)amino)quinoxalin-5-yl)-N-methylmethanesulfonamide] | 34 | 8 | 21 | 33 | 98 | 595
10 | CCCc1cc(Nc2ncc(Cl)c(Nc3ccc4nccnc4c3NS(C)(=O)=O)n2)c(OC)cc1N1CCC(N(C)C)CC1 [Example B12, N-(6-((5-chloro-2-((4-(4-(dimethylamino)piperidin-1-yl)-2-methoxy-5-propylphenyl)amino)pyrimidin-4-yl)amino)quinoxalin-5-yl)methanesulfonamide] | 29 | 104 | 19 | 36 | 87 | 431
11 | COc1cc(N2CCC(N3CCN(CC(F)F)CC3)CC2)ccc1Nc1ncc(Cl)c(Nc2ccc3nccnc3c2NS(C)(=O)=O)n1 [Example A37, N-(6-((5-chloro-2-((4-(4-(4-(2,2-difluoroethyl)piperazin-1-yl)piperidin-1-yl)-2-methoxyphenyl)amino)pyrimidin-4-yl)amino)quinoxalin-5-yl)methane sulfonamide] | 126 | 205 | 174 | 640 | 451 | 734
12 | CCc1cc(Nc2ncc(Cl)c(Nc3ccc(OC)c(OC)c3NS(C)(=O)=O)n2)c(OC)cc1N1CCC(N2CCOCC2)CC1 [Example C18, N-(6-((5-chloro-2-((5-ethyl-2-methoxy-4-(4-morpholinopiperidin-1-yl)phenyl)amino)pyrimidin-4-yl)amino)-2,3-dimethoxyphenyl)methanesulfonamide] | 55 | 54 | 39 | 194 | 215 | 835
13 | CCCc1cc(Nc2ncc(Cl)c(Nc3cccc(OC)c3N(C)S(C)(=O)=O)n2)c(OC)cc1N1CCC(N(C)C)CC1 [Example C31, N-(2-((5-chloro-2-((4-(4-(dimethylamino)piperidin-1-yl)-2-methoxy-5-propylphenyl)amino)pyrimidin-4-yl)amino)-6-methoxyphenyl)-N-methylmethanesulfonamide] | 10 | 20 | 22 | 68 | 89 | 698
14 | CCc1cc(Nc2ncc(Br)c(Nc3ccc4nccnc4c3NS(C)(=O)=O)n2)c(OC)cc1N1CCC(N2CCOCC2)CC1 [Example A28, N-(6-((5-bromo-2-((5-ethyl-2-methoxy-4-(4-morpholinopiperidin-1-yl)phenyl)amino)pyrimidin-4-yl)amino)quinoxalin-5-yl)methanesulfonamide] | 36 | 51 | 10 | 17 | 101 | 318
15 | CCc1cc(Nc2ncc(Cl)c(Nc3ccc4c(c3NS(C)(=O)=O)OCCO4)n2)c(OC)cc1N1CCC(N2CCOCC2)CC1 [Example C15, N-(6-((5-chloro-2-((5-ethyl-2-methoxy-4-(4-morpholinopiperidin-1-yl)phenyl)amino)pyrimidin-4-yl)amino)-2,3-dihydrobenzo[b][1,4]dioxin-5-yl)methanesulfonamide] | 13 | 14 | 8 | 30 | 44 | 638
16 | CCCc1cc(Nc2ncc(Br)c(Nc3ccc4nccnc4c3N(C)S(C)(=O)=O)n2)c(OC)cc1N1CCC(N(C)C)CC1 [Example B24, N-(6-((5-bromo-2-((4-(4-(dimethylamino)piperidin-1-yl)-2-methoxy-5-propylphenyl)amino)pyrimidin-4-yl)amino)quinoxalin-5-yl)-N-methylmethanesulfonamide] | 17 | 20 | 23 | 65 | 185 | 908
17 | COc1cc(C2CCNCC2)c(F)cc1Nc1ncc(Cl)c(Nc2ccc3nccnc3c2NS(C)(=O)=O)n1 [Example B21, N-(6-((5-chloro-2-((5-fluoro-2-methoxy-4-(piperidin-4-yl)phenyl)amino)pyrimidin-4-yl)amino)quinoxalin-5-yl)methanesulfonamide] | 342 | 448 | 469 | 693 | 500 | 1730
